Among the data in article PMC9724349, “Discovery of a pyrano[2,3-b]pyridine derivative YX-2102 as a cannabinoid receptor 2 agonist for alleviating lung fibrosis” (Journal of Translational Medicine, 2022) are Ki values, retold here.

The assay concerns the target T1, cannabinoid receptor 2 (CB2R) (Homo sapiens, UniProt P34972).
T1 construct: gene CNR2
Put plainly: radioligand binding assay, [3H]CP […] displacement.

T1 sequence (P34972 whole entry): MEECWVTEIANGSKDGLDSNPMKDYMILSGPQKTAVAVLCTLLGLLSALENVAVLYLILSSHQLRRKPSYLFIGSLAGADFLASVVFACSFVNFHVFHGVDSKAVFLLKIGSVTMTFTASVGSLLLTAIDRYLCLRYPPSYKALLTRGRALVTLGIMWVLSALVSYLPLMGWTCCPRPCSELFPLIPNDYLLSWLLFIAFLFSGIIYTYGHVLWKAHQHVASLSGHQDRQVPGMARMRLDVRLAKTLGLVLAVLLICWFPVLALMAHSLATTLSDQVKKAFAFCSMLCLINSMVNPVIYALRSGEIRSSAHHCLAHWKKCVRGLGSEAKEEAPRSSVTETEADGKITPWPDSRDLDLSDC

Molecule `CCOC(=O)C1=CC(c2cccc(C)c2)C2CCC(CC(=O)c3ccccc3)OC2N1S(=O)(=O)c1ccc(C)cc1` (stereo not shown) [YX-2102] registered a Ki of 350 nM.

In general, Ki refers to the equilibrium dissociation constant of an inhibitor or competing ligand from its target. Low values mean a stronger hold on the target, high ones a looser hold on the target.
